# Measured values as given in patent EP0307553B1, “Modified splenopentines, their process of preparation and their use” (priority 1987, dated 1989).
# Tests used:
# NMRI-Mäuse [1] = assay: Antigen-specific IgM response against sheep erythrocytes in normal mice (Jerne plaque test, Fig. 1); type: in vivo; conditions: 3x at 24 h intervals, 0,5 mg/kg, independent of route of application
# From the text: (§1) Der Einfluß von DAc-SP5 und immunsuppressiv wirkenden Verbindungen auf die Antigen-spezifische IgM-Antwort bei Mäusen wurde untersucht. Die erhaltenen Ergebnisse sind in den Fig.1 und 2 dargestellt.
# Tiere: männliche NMRI-Mäuse (Koloniezucht) im Alter von 2-2,5 Monaten. Methodik des Jerne-Plaquetests entsprechend R. Eckert und G. Pasternak, Acta biol. med. germ. 31: 127-137 (1973), n= 16 (NaCl-Kontrolle), n= 8 (DAc-SP5-Versuche).
# [2] = Histopathological lung changes after infection, mouse; type: in vivo, Maus (Balb/c); conditions: Maus (TCID = 10^3,5)
# [3] = Histopathological lung changes after infection, hamster; type: in vivo, syrischen Hamster; conditions: Hamster (TCID₅₀ = 2 x 10^3,5)
# Coxsackievirus B4 = assay: Histologically confirmed pancreatitis after Coxsackievirus infection; type: in vivo, Balb/c-Mäuse
# [4] = system: Monocyten bzw. Lymphocytensubpopulationen; assay: Cytofluorimetric quantification of monocytes and lymphocyte subpopulations in a patient with secondary immunodeficiency; type: in vivo, Patientin; conditions: for DR^+-Monocyten (Gpt/l): before treatment 0,02, normal 0 -0,6; for CD 4 (Gpt/l): before treatment 0,03, normal 0,6 - 1,3; for CD 3 (Gpt/l): before treatment 0,04, normal 1,0 - 2,0; for Lymphocyten (Gpt/l): before treatment 0,28, normal 1,5 - 3,5; for CD 4/ CD 8: before treatment 0,58, normal 1,5 - 3,0; for DR^+-Monocyten (%): before treatment 16, normal 65 - 90
# [5] = system: Knochenmark-stammzellen von C57 Bl-Mäusen; assay: Colony formation test: mouse bone marrow stem cells co-cultured with human leukocytes in agar; type: cell-based; conditions: without DAc-SP5 = 100 %
# männlichen Balb/c-Mäusen = assay: Chronic alcohol intoxication: parameters of the immune system; type: in vivo, Mäuse; conditions: 5x daily before test, n=40
# NMRI-Mäuse [6] = assay: Chemically induced suppression of the humoral immune response (cyclophosphamide, dexamethasone; Fig. 2); type: in vivo
# From the text: as §1
# DAc-SP5 rekonstituiert bereits durch wenige aufeinanderfolgende Applikationen die chemisch induzierts Suppression der humoralen Immunantwort.
# [7] = system: HIV-infizierten Patienten; assay: Therapy of HIV-infected patients
# Milzzellen/Ratte = assay: Radioligand binding study, rat spleen cells
# [8] = therapy before infection: 0,5 mg/kg s.c. 3 x per week during 2 weeks before infection
# [9] = therapy during infection: 0,5 mg/kg s.c. daily over 5 days from day of infection
# [10] = 15 % Ethanol over 1,5 months + 0,1 mg DAc-SP5 i.p.
# [11] = no Ethanol, 0,1 mg DAc-SP5 i.p.
# [12] = HIV-infected patients (Tab. 6.1.)
substance,measurement,setting,value
(N^α-Acetyl-arginyl)(N^ε-acetyl-lysyl)glutamylvalyltyrosin [DAc-SP5],Stärke und Kinetik der IgM-Antwort von Mäusen gegen Schafserythrocyten,NMRI-Mäuse [1],keinen siknifikanten Einfluß
same,Anzahl der Tiere mit histopathologischem Lungenbefund (%),[2]; [8],100%
same,Anzahl der Tiere mit histopathologischem Lungenbefund (%),[2]; [9],0%
same,Anzahl der Tiere mit histopathologischem Lungenbefund (%),[3]; [8],100%
same,Anzahl der Tiere mit histopathologischem Lungenbefund (%),[3]; [9],10%
same,"Tiere mit Pankreatitis (in %, n = 10-15)","Coxsackievirus B4; Infektionsdosis (TCID₅₀) 10³, therapy during infection: 0,5 mg/kg s.c. daily over 5 days from day of infection",0%
same,"Tiere mit Pankreatitis (in %, n = 10-15)","Coxsackievirus B4; Infektionsdosis (TCID₅₀) 10⁴, therapy before infection: 0,5 mg/kg s.c. 3 x per week during 2 weeks before infection",80%
same,"Tiere mit Pankreatitis (in %, n = 10-15)","Coxsackievirus B4; Infektionsdosis (TCID₅₀) 10⁴, therapy during infection: 0,5 mg/kg s.c. daily over 5 days from day of infection",0%
same,"Tiere mit Pankreatitis (in %, n = 10-15)","Coxsackievirus B4; Infektionsdosis (TCID₅₀) 10⁵, therapy before infection: 0,5 mg/kg s.c. 3 x per week during 2 weeks before infection",100%
same,"Tiere mit Pankreatitis (in %, n = 10-15)","Coxsackievirus B4; Infektionsdosis (TCID₅₀) 10⁵, therapy during infection: 0,5 mg/kg s.c. daily over 5 days from day of infection",60%
same,"Tiere mit Pankreatitis (in %, n = 10-15)","Coxsackievirus B4; Infektionsdosis (TCID₅₀) 10⁶, therapy before infection: 0,5 mg/kg s.c. 3 x per week during 2 weeks before infection",100%
same,"Tiere mit Pankreatitis (in %, n = 10-15)","Coxsackievirus B4; Infektionsdosis (TCID₅₀) 10⁶, therapy during infection: 0,5 mg/kg s.c. daily over 5 days from day of infection",100%
same,DR^+-Monocyten (Gpt/l),[4]; 2 weeks of therapy,"0,08 Gpt/l"
same,CD 4 (Gpt/l),[4]; 2 weeks of therapy,"0,29 Gpt/l"
same,CD 3 (Gpt/l),[4]; 2 weeks of therapy,"0,39 Gpt/l"
same,Lymphocyten (Gpt/l),[4]; 2 weeks of therapy,"0,84 Gpt/l"
same,CD 4/ CD 8,[4]; 2 weeks of therapy,"2,3"
same,DR^+-Monocyten (%),[4]; 2 weeks of therapy,22%
same,DR^+-Monocyten (Gpt/l),[4]; 3 weeks of therapy,"0,26 Gpt/l"
same,CD 4 (Gpt/l),[4]; 3 weeks of therapy,"0,34 Gpt/l"
same,CD 3 (Gpt/l),[4]; 3 weeks of therapy,"0,55 Gpt/l"
same,Lymphocyten (Gpt/l),[4]; 3 weeks of therapy,"0,74 Gpt/l"
same,CD 4/ CD 8,[4]; 3 weeks of therapy,"2,2"
same,DR^+-Monocyten (%),[4]; 3 weeks of therapy,62%
same,DR^+-Monocyten (Gpt/l),[4]; 4 weeks of therapy,"0,60 Gpt/l"
same,CD 4 (Gpt/l),[4]; 4 weeks of therapy,"0,38 Gpt/l"
same,CD 3 (Gpt/l),[4]; 4 weeks of therapy,"0,67 Gpt/l"
same,Lymphocyten (Gpt/l),[4]; 4 weeks of therapy,"0,83 Gpt/l"
same,CD 4/ CD 8,[4]; 4 weeks of therapy,"2,4"
same,DR^+-Monocyten (%),[4]; 4 weeks of therapy,72%
same,"Zell-""Kolonien"" pro 10^5 Knochenmarkzellen, Prozentuale Angabe","[5]; leukocytes of Kontroll-personen, Exp. A, 1 µg DAc-SP5 per 1 ml agar",99%
same,"Zell-""Kolonien"" pro 10^5 Knochenmarkzellen, Prozentuale Angabe","[5]; leukocytes of Kontroll-personen, Exp. A, 2 µg DAc-SP5 per 1 ml agar",98%
same,"Zell-""Kolonien"" pro 10^5 Knochenmarkzellen, Prozentuale Angabe","[5]; leukocytes of Kontroll-personen, Exp. A, 10 µg DAc-SP5 per 1 ml agar",114%
same,"Zell-""Kolonien"" pro 10^5 Knochenmarkzellen, Prozentuale Angabe","[5]; leukocytes of Kontroll-personen, Exp. A, 20 µg DAc-SP5 per 1 ml agar",125%
same,"Zell-""Kolonien"" pro 10^5 Knochenmarkzellen, Prozentuale Angabe","[5]; leukocytes of Kontroll-personen, Exp. B, 1 µg DAc-SP5 per 1 ml agar",135%
same,"Zell-""Kolonien"" pro 10^5 Knochenmarkzellen, Prozentuale Angabe","[5]; leukocytes of Kontroll-personen, Exp. B, 2 µg DAc-SP5 per 1 ml agar",136%
same,"Zell-""Kolonien"" pro 10^5 Knochenmarkzellen, Prozentuale Angabe","[5]; leukocytes of Kontroll-personen, Exp. B, 10 µg DAc-SP5 per 1 ml agar",147%
same,"Zell-""Kolonien"" pro 10^5 Knochenmarkzellen, Prozentuale Angabe","[5]; leukocytes of Kontroll-personen, Exp. B, 20 µg DAc-SP5 per 1 ml agar",137%
same,"Zell-""Kolonien"" pro 10^5 Knochenmarkzellen, Prozentuale Angabe","[5]; leukocytes of Patienten (Systemischer Lupus Erythe-matodes), Exp. A, 1 µg DAc-SP5 per 1 ml agar",180%
same,"Zell-""Kolonien"" pro 10^5 Knochenmarkzellen, Prozentuale Angabe","[5]; leukocytes of Patienten (Systemischer Lupus Erythe-matodes), Exp. A, 2 µg DAc-SP5 per 1 ml agar",316%
same,"Zell-""Kolonien"" pro 10^5 Knochenmarkzellen, Prozentuale Angabe","[5]; leukocytes of Patienten (Systemischer Lupus Erythe-matodes), Exp. A, 10 µg DAc-SP5 per 1 ml agar",270%
same,"Zell-""Kolonien"" pro 10^5 Knochenmarkzellen, Prozentuale Angabe","[5]; leukocytes of Patienten (Systemischer Lupus Erythe-matodes), Exp. A, 20 µg DAc-SP5 per 1 ml agar",256%
same,"Zell-""Kolonien"" pro 10^5 Knochenmarkzellen, Prozentuale Angabe","[5]; leukocytes of Patienten (Systemischer Lupus Erythe-matodes), Exp. B, 2 µg DAc-SP5 per 1 ml agar",873%
same,"Zell-""Kolonien"" pro 10^5 Knochenmarkzellen, Prozentuale Angabe","[5]; leukocytes of Patienten (Systemischer Lupus Erythe-matodes), Exp. B, 10 µg DAc-SP5 per 1 ml agar",642%
same,"Zell-""Kolonien"" pro 10^5 Knochenmarkzellen, Prozentuale Angabe","[5]; leukocytes of Patienten (Systemischer Lupus Erythe-matodes), Exp. B, 20 µg DAc-SP5 per 1 ml agar",438%
same,% phagocytierende Peritonealzellen,männlichen Balb/c-Mäusen; [10],"47,5±1,7%"
same,Milzmasse (mg),männlichen Balb/c-Mäusen; [10],"82,0±5,6 mg"
same,Phagocytoseindex,männlichen Balb/c-Mäusen; [10],"4,5±0,1"
same,Plaque-bildende Zellen der Milz pro 10⁶ Zellen (Jerne-Plaquetest),männlichen Balb/c-Mäusen; [10],"214,3±5,9 pro 10⁶ Zellen"
same,Thymusmasse (mg),männlichen Balb/c-Mäusen; [10],"29,0±2,2 mg"
same,% phagocytierende Peritonealzellen,männlichen Balb/c-Mäusen; [11],"75,0±2,6%"
same,Milzmasse (mg),männlichen Balb/c-Mäusen; [11],"95,0±7,1 mg"
same,Phagocytoseindex,männlichen Balb/c-Mäusen; [11],"4,9±0,15"
same,Plaque-bildende Zellen der Milz pro 10⁶ Zellen (Jerne-Plaquetest),männlichen Balb/c-Mäusen; [11],"285,0±11,3 pro 10⁶ Zellen"
same,Thymusmasse (mg),männlichen Balb/c-Mäusen; [11],"40,0±3,0 mg"
same,Suppression der Antigen-spezifischen IgM-Antwort nach Cyclophosphamid,"NMRI-Mäuse [6]; Cyclophosphamid 7,2 mg/Tier i. p. once, DAc-SP5 0,5 mg/kg s. c. on the 4 following days",teilweise rekonstituiert
same,Reduktion der Antigen-spezifischen IgM-Antwort durch Dexamethason,"NMRI-Mäuse [6]; Dexamethason 0,2 or 0,08 mg/Tier i. p., DAc-SP5 0,5 mg/kg s. c. on the two following days",vollständig rekonstituiert
same,CD4⁺/CD8⁺-Verhältnisses,[7]; [12],Verbesserung
same,Gesamtlymphocytenzahl,[7]; [12],Anhebung der Gesamtlymphocytenzahl in den Kontrollbereich
same,Nebenwirkungen,"[7]; HIV-infected patients, after 16 weeks of therapy",keine Nebenwirkungen
³H-Splenopentin [³H-SP5],"Radioligand-Dissoziationskonstante (KD, M)",Milzzellen/Ratte,keine verdrängbare Bindung
